Reference: PubChem BioAssay AID274 (DTP/NCI, 2004)
Where “and” joins values, the source holds several entries; their conditions need not be identical. Equal values may be shown once. Inconclusive results and toxic doses are left out. Numbered stars: 1 amine (or outer) side, 2 acyl side, 3 side chain; on linkers, the order of the positions; unused ones are H or OH. Bridge positions count the residues as written; N and C are the ends. Square brackets hold non-standard residues; d marks the D form. Peptide text beside a SMILES is read from it. I, II: the chains in the order shown. Actinocin(9to1) = Cc1c2oc3c(C)ccc(C(=O)[*:1])c3nc-2c(C(=O)[*:2])c(N)c1=O; NMeV = CN[CH](C(=O)O)C(C)C; Aze = O=C(O)[CH]1CCN1; Sar = CNCC(=O)O

System: BDF1 mice, Lewis lung carcinoma iv, survival T/C
Test: NCI In Vivo Anticancer Drug Screen. Data for tumor model Lewis Lung Carcinoma (intravenous) in B6D2F1 (BDF1) mice
Conditions: endpoint: median survival time, higher = longer survival
Description: The antitumor activity of compounds was measured in mice bearing transplantable tumors. Survival or tumor size were measured and the results are expressed as the measurement made in the treated group (T) divided by the measurement made in the vehicle treated control group (C). The tumor model used in this assay is Lewis Lung Carcinoma (intravenous) in B6D2F1 (BDF1) mice

[1] = dose: 2.0 mg/kg/injection, schedule: Q01DX009 (ip), vehicle: saline
[2] = dose: 4.0 mg/kg/injection, schedule: Q01DX009 (ip), vehicle: saline
[3] = dose: 8.0 mg/kg/injection, schedule: Q01DX009 (ip), vehicle: saline
[4] = dose: 100.0 mg/kg/injection, schedule: Q01DX009 (ip), vehicle: Klucel (hydroxypropylcellulose) (HPC)
[5] = dose: 200.0 mg/kg/injection, schedule: Q01DX009 (ip), vehicle: Klucel (hydroxypropylcellulose) (HPC)
[6] = dose: 6.25 mg/kg/injection, schedule: Q01DX009 (ip), vehicle: Klucel (hydroxypropylcellulose) (HPC)
[7] = dose: 12.5 mg/kg/injection, schedule: Q01DX009 (ip), vehicle: Klucel (hydroxypropylcellulose) (HPC)
[8] = dose: 25.0 mg/kg/injection, schedule: Q01DX009 (ip), vehicle: Klucel (hydroxypropylcellulose) (HPC)
[9] = dose: 6.25 mg/kg/injection, schedule: Q01DX009 (ip), vehicle: saline
[10] = dose: 12.5 mg/kg/injection, schedule: Q01DX009 (ip), vehicle: saline
[11] = dose: 25.0 mg/kg/injection, schedule: Q01DX009 (ip), vehicle: saline
[12] = dose: 50.0 mg/kg/injection, schedule: Q01DX009 (ip), vehicle: Klucel (hydroxypropylcellulose) (HPC)
[13] = dose: 50.0 mg/kg/injection, schedule: Q01DX009 (ip), vehicle: saline
[14] = dose: 100.0 mg/kg/injection, schedule: Q01DX009 (ip), vehicle: saline
[15] = dose: 200.0 mg/kg/injection, schedule: Q01DX009 (ip), vehicle: saline

## O=c1[nH]cc(F)c(=O)[nH]1
[1]
  T/C: 106 % of control
dose: 2.5 mg/kg/injection, schedule: Q01DX009 (ip), vehicle: saline
  T/C: 108 % of control
[2]
  T/C: 110 % of control
dose: 5.0 mg/kg/injection, schedule: Q01DX009 (ip), vehicle: saline
  T/C: 116 % of control
dose: 7.5 mg/kg/injection, schedule: Q04DX003 (ip), vehicle: saline
  T/C: 96 % of control (2×) and 110 % of control
[3]
  T/C: 112 % of control
dose: 9.8 mg/kg/injection, schedule: Q01DX009 (ip), vehicle: saline
  T/C: 122 % of control
dose: 10.0 mg/kg/injection, schedule: Q01DX009 (ip), vehicle: saline
  T/C: 104 % of control and 109 % of control and 122 % of control
dose: 13.2 mg/kg/injection, schedule: Q04DX006 (ip), vehicle: saline
  T/C: 104 % of control
dose: 14.0 mg/kg/injection, schedule: Q01DX009 (ip), vehicle: saline
  T/C: 163 % of control
dose: 14.0 mg/kg/injection, schedule: Q01DX022 (ip), vehicle: saline
  T/C: 193 % of control
dose: 15.0 mg/kg/injection, schedule: Q04DX003 (ip), vehicle: saline
  T/C: 105 % of control and 110 % of control (2×)
dose: 16.0 mg/kg/injection, schedule: Q01DX009 (ip), vehicle: saline
  T/C: 107 % of control
dose: 28.6 mg/kg/injection, schedule: Q01DX009 (ip), vehicle: saline
  T/C: 109 % of control
dose: 32.0 mg/kg/injection, schedule: Q01DX009 (ip), vehicle: saline
  T/C: 122 % of control
dose: 40.9 mg/kg/injection, schedule: Q01DX009 (ip), vehicle: saline
  T/C: 109 % of control
dose: 60.0 mg/kg/injection, schedule: Q04DX003 (ip), vehicle: saline
  T/C: 150 % of control

## Cc1cc(O)c(C(C)C)cc1S(=O)(=O)O (tested in a mixture with another compound)
[4]
  T/C: 90 % of control
[5]
  T/C: 102 % of control

## Cc1c2ccncc2c(C)c2c1[nH]c1ccccc12
[6]
  T/C: 111 % of control
[7]
  T/C: 93 % of control
[8]
  T/C: 105 % of control

## C=CC(C)NC(=S)NNC(=S)NC (stereo not given)
dose: 25.0 mg/kg/injection, schedule: Q01DX009 (ip), vehicle: saline + alcohol
  T/C: 119 % of control
dose: 50.0 mg/kg/injection, schedule: Q01DX009 (ip), vehicle: saline + alcohol
  T/C: 110 % of control
dose: 100.0 mg/kg/injection, schedule: Q01DX009 (ip), vehicle: saline + alcohol
  T/C: 107 % of control
dose: 200.0 mg/kg/injection, schedule: Q01DX009 (ip), vehicle: saline + alcohol
  T/C: 104 % of control
dose: 400.0 mg/kg/injection, schedule: Q01DX009 (ip), vehicle: saline + alcohol
  T/C: 114 % of control

## CN(C)c1ccc2c(N(C)C)cc(N(C)C)nc2c1
dose: 1.56 mg/kg/injection, schedule: Q01DX009 (ip), vehicle: Klucel (hydroxypropylcellulose) (HPC)
  T/C: 98 % of control
dose: 3.13 mg/kg/injection, schedule: Q01DX009 (ip), vehicle: Klucel (hydroxypropylcellulose) (HPC)
  T/C: 95 % of control
[6]
  T/C: 102 % of control
[7]
  T/C: 99 % of control
[8]
  T/C: 111 % of control

## CC(C)C1OC(=O)/C=C/C=C/C=C/C=C/C=C/CC(O)C(C)C(O)CC(O)CC(O)CC(O)CC(O)CC(O)CC(O)/C=C/C1C (stereo not given)
[9]
  T/C: 111 % of control
[10]
  T/C: 104 % of control
[11]
  T/C: 111 % of control

## C/C=C/C=C/c1cc2cc3c(c(O)c2c(=O)[nH]1)C1(CC3)C(O)=c2c(=O)c3c(=O)cc(OC)c(=O)c=3c(=O)c2=C1O (stereo not given)
dose: 0.06 mg/kg/injection, schedule: Q01DX009 (ip), vehicle: DMSO
  T/C: 97 % of control
dose: 0.12 mg/kg/injection, schedule: Q01DX009 (ip), vehicle: DMSO
  T/C: 102 % of control
dose: 0.25 mg/kg/injection, schedule: Q01DX009 (ip), vehicle: DMSO
  T/C: 95 % of control and 101 % of control
dose: 0.5 mg/kg/injection, schedule: Q01DX009 (ip), vehicle: DMSO
  T/C: 102 % of control
dose: 16.0 micrograms/kg/injection, schedule: Q01DX009 (ip), vehicle: DMSO
  T/C: 102 % of control
dose: 31.0 micrograms/kg/injection, schedule: Q01DX009 (ip), vehicle: DMSO
  T/C: 93 % of control
dose: 62.0 micrograms/kg/injection, schedule: Q01DX009 (ip), vehicle: DMSO
  T/C: 91 % of control
dose: 125.0 micrograms/kg/injection, schedule: Q01DX009 (ip), vehicle: DMSO
  T/C: 102 % of control

## Nc1nc([Se])c2ncn(C3OC(CO)C(O)C3O)c2n1 (stereo not given)
[1]
  T/C: 96 % of control
[2]
  T/C: 99 % of control
[3]
  T/C: 118 % of control

## CCS(=O)(=O)OCCCCOS(=O)(=O)CC
dose: 3.13 mg/kg/injection, schedule: Q01DX009 (ip), vehicle: saline
  T/C: 99 % of control
[9]
  T/C: 103 % of control

## COc1cc(C)c(C2NC(=O)c3ccccc3N2)cc1C (stereo not given)
[8]
  T/C: 105 % of control
[12]
  T/C: 97 % of control
[4]
  T/C: 92 % of control
[5]
  T/C: 97 % of control
dose: 400.0 mg/kg/injection, schedule: Q01DX009 (ip), vehicle: Klucel (hydroxypropylcellulose) (HPC)
  T/C: 101 % of control

## CC12C(=O)C=CCC1=CCC1C2CCC2(O)C(=O)OC3(C)C4CC5(C)C(COC16OC23C5C6=O)C(=O)O4 (stereo not given)
[8]
  T/C: 101 % of control
[12]
  T/C: 100 % of control
[4]
  T/C: 105 % of control

## CC(=O)OCC1OC(n2cc(CBr)nn2)C(OC(C)=O)C(OC(C)=O)C1OC(C)=O (stereo not given)
dose: 3.12 mg/kg/injection, schedule: Q01DX009 (ip), vehicle: Klucel (hydroxypropylcellulose) (HPC)
  T/C: 87 % of control
[6]
  T/C: 88 % of control
[7]
  T/C: 102 % of control
[8]
  T/C: 106 % of control
[12]
  T/C: 96 % of control

## CC1CCC(n2cnc3c(Cl)ncnc32)O1 (stereo not given)
dose: 12.0 mg/kg/injection, schedule: Q01DX009 (ip), vehicle: Klucel (hydroxypropylcellulose) (HPC)
  T/C: 100 % of control
[8]
  T/C: 109 % of control
[12]
  T/C: 98 % of control
[4]
  T/C: 104 % of control
[5]
  T/C: 96 % of control

## c1cc2n(n1)CCN2
[13]
  T/C: 105 % of control
[14]
  T/C: 104 % of control
[15]
  T/C: 86 % of control

## C(CSC1=NCCN1)CSC1=NCCN1
[9]
  T/C: 93 % of control
[10]
  T/C: 100 % of control
[11]
  T/C: 93 % of control
[13]
  T/C: 93 % of control
[14]
  T/C: 102 % of control
[15]
  T/C: 100 % of control

## Cc1c2oc3c(C)ccc(C(=O)NC4C(=O)NC(C(C)C)C(=O)N5CCC5C(=O)N(C)CC(=O)N(C)C(C(C)C)C(=O)OC4C)c3nc-2c(C(=O)NC2C(=O)NC(C(C)C)C(=O)N3CCC3C(=O)N(C)CC(=O)N(C)C(C(C)C)C(=O)OC2C)c(N)c1=O (stereo not given) (I: TV[Aze][Sar][NMeV] / II: TV[Aze][Sar][NMeV]; ester I:1-I:C, II:1-II:C; linker I:N-II:N via Actinocin(9to1); configuration not given here)
dose: 194.0 micrograms/kg/injection, schedule: Q04DX003 (ip), vehicle: saline + alcohol
  T/C: 87 % of control
dose: 270.0 micrograms/kg/injection, schedule: Q04DX003 (ip), vehicle: saline + alcohol
  T/C: 94 % of control
dose: 324.0 micrograms/kg/injection, schedule: Q04DX003 (ip), vehicle: saline + alcohol
  T/C: 95 % of control
dose: 450.0 micrograms/kg/injection, schedule: Q04DX003 (ip), vehicle: saline + alcohol
  T/C: 95 % of control
dose: 540.0 micrograms/kg/injection, schedule: Q04DX003 (ip), vehicle: saline + alcohol
  T/C: 109 % of control
dose: 648.0 micrograms/kg/injection, schedule: Q01DX001 (ip), vehicle: saline + alcohol
  T/C: 97 % of control
dose: 750.0 micrograms/kg/injection, schedule: Q04DX003 (ip), vehicle: saline + alcohol
  T/C: 108 % of control
dose: 1080.0 micrograms/kg/injection, schedule: Q01DX001 (ip), vehicle: saline + alcohol
  T/C: 98 % of control

## CCCCCc1cc(O)c2c(c1)OC(C)(C)[C@@H]1CCC(C)=C[C@@H]21
dose: 200.0 mg/kg/injection, schedule: Q01DX009 (ip), vehicle: other
  T/C: 89 % of control
dose: 800.0 mg/kg/injection, schedule: Q01DX009 (ip), vehicle: other
  T/C: 88 % of control

## C=CC(=O)NCNC(=O)C=C
[9]
  T/C: 90 % of control
[10]
  T/C: 102 % of control and 113 % of control
[11]
  T/C: 98 % of control and 104 % of control
[13]
  T/C: 97 % of control and 98 % of control
[14]
  T/C: 101 % of control and 110 % of control
